What was measured:
[1] = molecular target: T1, Aurora kinase A (Homo sapiens, UniProt O14965); experiment: Aurora Kinase Assay
T1 sequence (O14965 whole entry): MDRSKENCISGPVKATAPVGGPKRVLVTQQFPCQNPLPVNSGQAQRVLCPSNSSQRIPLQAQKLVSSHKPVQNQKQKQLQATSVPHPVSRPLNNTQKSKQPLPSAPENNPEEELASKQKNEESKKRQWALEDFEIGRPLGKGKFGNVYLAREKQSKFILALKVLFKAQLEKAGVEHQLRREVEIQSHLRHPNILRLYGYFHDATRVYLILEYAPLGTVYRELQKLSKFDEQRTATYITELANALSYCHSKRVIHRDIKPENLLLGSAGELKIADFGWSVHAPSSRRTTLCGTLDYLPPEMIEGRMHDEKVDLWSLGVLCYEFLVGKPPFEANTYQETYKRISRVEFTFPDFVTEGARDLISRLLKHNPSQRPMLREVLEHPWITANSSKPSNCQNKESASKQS
Method: (§1) The kinase assay of Aurora A and B was measured using HTRF-kinEASE-STK discovery kit purchased from Cisbio.

[2] = molecular target: Aurora kinase B (Homo sapiens, UniProt Q96GD4); experiment: Aurora Kinase Assay
Sequence of Aurora kinase B (Q96GD4 whole entry): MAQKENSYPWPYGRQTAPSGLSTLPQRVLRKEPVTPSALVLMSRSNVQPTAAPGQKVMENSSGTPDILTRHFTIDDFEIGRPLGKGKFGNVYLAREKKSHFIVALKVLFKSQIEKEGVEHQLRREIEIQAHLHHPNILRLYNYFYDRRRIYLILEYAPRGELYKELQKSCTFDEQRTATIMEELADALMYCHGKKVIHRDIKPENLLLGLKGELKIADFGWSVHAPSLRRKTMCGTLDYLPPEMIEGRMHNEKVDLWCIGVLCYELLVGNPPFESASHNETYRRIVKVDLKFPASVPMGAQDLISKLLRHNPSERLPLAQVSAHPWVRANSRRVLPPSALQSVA
Method: as §1

| Structure (SMILES) | IC50 [1] [nM] | IC50 [2] [nM] |
| --- | --- | --- |
| CCN(CC)CCCOc1ccc2c(Nc3ccc(C)c(Nc4ncc(-c5cccnc5)cn4)c3)ncnc2c1 [4-Aminoquinazoline derivative, 6c] | 98 | 202 |
| CCOC(=O)c1csc2cc(Nc3ncnc4cc(OCCCN5CCN(C)CC5)ccc34)ccc12 [4-Aminoquinazoline derivative, 6f] | 111 | 136 |
| CCOC(=O)c1csc2cc(Nc3ncnc4cc(OCCCN5CCCCC5)ccc34)ccc12 [4-Aminoquinazoline derivative, 6g] | 822 | – |
| CCOC(=O)c1csc2cc(Nc3ncnc4cc(OCCCN5CCCC5)ccc34)ccc12 [4-Aminoquinazoline derivative, 6h] | 62 | 146 |
| CCOC(=O)c1csc2cc(Nc3ncnc4cc(OCCCN(CC)CC)ccc34)ccc12 [4-Aminoquinazoline derivative, 6i] | 788 | 893 |

Second part, the compound after the results:

| IC50 [1] [nM] | IC50 [2] [nM] | Structure (SMILES) |
| --- | --- | --- |
| 179 | 191 | Cc1ccc(Nc2ncnc3cc(OCCCN4CCOCC4)ccc23)cc1Nc1ncc(-c2cccnc2)cn1 [4-Aminoquinazoline derivative, 6a] |
| 323 | 489 | Cc1ccc(Nc2ncnc3cc(OCCCN4CCCCC4)ccc23)cc1Nc1ncc(-c2cccnc2)cn1 [4-Aminoquinazoline derivative, 6b] |
| 77 | 145 | Cc1ccc(Nc2ncnc3cc(OCCCN4CCCC4)ccc23)cc1Nc1ncc(-c2cccnc2)cn1 [4-Aminoquinazoline derivative, 6d] |
